IC50 data for 11 compounds are collected here from patent US8247409B2, “Thieno-[2,3-d]pyrimidine and thieno-pyridazine compounds and methods of use” (Amgen Inc., priority 2006, dated 2012).

The subject of the test is LPS induced TNF release from monocytes. The test can be described thus: Lipopolysaccharide-activated Monocyte TNF Production Assay. It is filed as cell-based. The note with it: Homo sapiens, monocytes activated with LPS, TNF in supernatant by ELISA. On the procedure: Lipopolysaccharide-activated Monocyte TNF Production Assay
Test compounds were evaluated in vitro for the ability to inhibit the production of TNF by monocytes activated with bacterial lipopolysaccharide (LPS). Fresh residual source leukocytes (a byproduct of plateletpheresis) were obtained from a local blood bank, and peripheral blood mononuclear cells (PBMCs) were isolated by density gradient centrifugation on Ficol-Paque Plus (Pharmacia). PBMCs were suspended at 2×10^6/mL in DMEM supplemented to contain 2% FCS, 10 mM, 0.3 mg/mL […], 100 U/mL penicillin G and […] streptomycin sulfate (complete media). Cells were plated into Falcon flat bottom, 96 well culture plates (200 μL/well) and cultured overnight at 37° C. and 6% CO2. Non-adherent cells were removed by washing with 200 μL/well of fresh medium. Wells containing adherent cells (˜70% monocytes) were replenished with 100 μL of fresh medium.
Preparation of Test Compound Stock Solutions
Test compounds were dissolved in […]. Compound stock solutions were prepared to an initial concentration of […]. Stocks were diluted initially to 20-200 μM in complete media. Nine two-fold serial dilutions of each compound were then prepared in complete medium.
Treatment of Cells with Test Compounds and Activation of TNF Production with Lipopolysaccharide
One hundred microliters of each test compound dilution were added to microtiter wells containing adherent monocytes and 100 μL complete medium. Monocytes were cultured with test compounds for 60 min at which time 25 μL of complete medium containing 30 ng/mL lipopolysaccharide from E. coli K532 were added to each well. Cells were cultured an additional 4 hrs. Culture supernatants were then removed and TNF presence in the supernatants was quantified using an ELISA.
Flat bottom, 96 well Corning High Binding ELISA plates were coated overnight (4° C.) with 150 μL/well of 3 μg/mL murine anti-human TNF-α MAb (R&D Systems #MAB210). Wells were then blocked for 1 h at room temperature with 200 μL/well of CaCl2-free ELISA buffer supplemented to contain 20 mg/mL BSA (standard ELISA buffer: […], 150 mM NaCl, 2 mM CaCl2, 0.15 mM thimerosal, pH 7.4). Plates were washed and replenished with 100 μL of test supernatants (diluted 1:3) or standards. Standards consisted of eleven 1.5-fold serial dilutions from a stock of 1 ng/mL recombinant human TNF (R&D Systems). Plates were incubated at room temperature for 1 hr on orbital shaker (300 rpm); washed and replenished with 100 μL/well of 0.5 μg/mL goat anti-human TNF-α (R&D systems #AB-210-NA) biotinylated at a 4:1 ratio. Plates were incubated for 40 min, washed and replenished with 100 μL/well of alkaline phosphatase-conjugated streptavidin (Jackson ImmunoResearch #016-050-084) at 0.02 μg/mL. Plates were incubated 30 min, washed and replenished with 200 μL/well of 1 mg/mL of p-nitrophenyl phosphate. After 30 min, plates were read at 405 nm on a Vmax plate reader.
Standard curve data were fit to a second order polynomial and unknown TNF-α concentrations determined from their OD by solving this equation for concentration. TNF concentrations were then plotted vs. test compound concentration using a second order polynomial. This equation was then used to calculate the concentration of test compounds causing a 50% reduction in TNF production.

Usually IC50 stands for the point on the concentration scale where inhibition reaches its midpoint. High values mean weaker potency in that assay, low ones greater potency in that assay.

`Cc1ccc(C(=O)NC2CC2)cc1-c1cc2cnc(CCN3CCOCC3)nc2s1` [Example 1, N-Cyclopropyl-4-methyl-3-(2-(2-morpholinoethyl)thieno[2,3-d]pyrimidin-6-yl)benzamide] had a half-inhibitory concentration (IC50) of no more than 5 µM.

`COc1c(F)cccc1-c1nncc2cc(-c3cc(C(=O)NC4CC4)ccc3C)sc12` [Example 3, N-cyclopropyl-3-(7-(3-fluoro-2-methoxyphenyl)thieno[2,3-d]pyridazin-2-yl)-4-methylbenzamide]: the IC50 is no more than 5 µM.

Regarding `Cc1ccc(C(=O)NC2CC2)cc1-c1cc2cnnc(N3CCNC(=O)C3)c2s1` [Example 6, N-cyclopropyl-4-methyl-3-(7-(3-oxopiperazin-1-yl)thieno[2,3-d]pyridazin-2-yl)benzamide], the concentration for half-maximal inhibition (IC50) was no more than 5 µM.

Turning to `CCN(CC)CCCNc1ncc2cc(-c3cc(C(=O)NC4CC4)ccc3C)sc2n1` [Example 7, N-cyclopropyl-3-(2-((3-(diethylamino)propyl)amino)thieno[2,3-d]pyrimidin-6-yl)-4-methylbenzamide], the IC50 was no more than 5 µM.

In the case of `CCNC(=O)c1ccc(C)c(-c2cc3cnc(NCCN4CCOCC4)nc3s2)c1` [Example 9, N-ethyl-4-methyl-3-(2-((2-(4-morpholinyl)ethyl)amino)thieno[2,3-d]pyrimidin-6-yl)benzamide], the IC50 was no more than 5 µM.

On to `Cc1ccc(C(=O)O)cc1-c1cc2cnc(NCCN3CCOCC3)nc2s1` [Example 10, 4-methyl-3-(2-((2-(4-morpholinyl)ethyl)amino)thieno[2,3-d]pyrimidin-6-yl)benzoic acid], for which the IC50 was no more than 5 µM.

In the case of `Cc1ccc(C(=O)NC2CC2)cc1-c1cc2cnc(NCC3CCCN(C(=O)OC(C)(C)C)C3)nc2s1` (centres unmarked) [Example 14, 1,1-dimethylethyl 3-(((6-(5-((cyclopropylamino)carbonyl)-2-methylphenyl)thieno[2,3-d]pyrimidin-2-yl)amino)methyl)-1-piperidinecarboxylate], the IC50 was no more than 5 µM.

For the compound `Cc1ccc(C(=O)NC2CC2)cc1-c1cc2cnnc(Cl)c2s1` [Example 21, 3-(7-chlorothieno[2,3-d]pyridazin-2-yl)-N-cyclopropyl-4-methylbenzamide], the IC50 was no more than 5 µM.

`Cc1ccc(C(=O)NC2CC2)cc1-c1cc2cnnc(-c3ccc(F)cc3C)c2s1` [Example 22, N-cyclopropyl-3-(7-(4-fluoro-2-methylphenyl)thieno[2,3-d]pyridazin-2-yl)-4-methylbenzamide] yielded a half-inhibitory concentration (IC50) of no more than 5 µM.

`COc1ncccc1-c1nncc2cc(-c3cc(C(=O)NC4CC4)ccc3C)sc12` [Example 23, N-cyclopropyl-4-methyl-3-(7-(2-(methyloxy)-3-pyridinyl)thieno[2,3-d]pyridazin-2-yl)benzamide] displayed an IC50 of no more than 5 µM.

`Cc1ccc(C(N)=O)cc1-c1cc2cnnc(-c3ccc(F)cc3C)c2s1` [Example 27, 3-(7-(4-fluoro-2-methylphenyl)thieno[2,3-d]pyridazin-2-yl)-4-methylbenzamide] showed a 50% inhibitory concentration (IC50) of no more than 5 µM.
